According to US9073855B2, “BCL-2 selective apoptosis-inducing agents for the treatment of cancer and immune diseases” (AbbVie Inc., priority 2008, dated 2015):

Columns and labels:
[1] = target: GST-Bcl-XL (Homo sapiens, UniProt Q07817); assay: TR-FRET binding assay, GST-Bcl-XL with F-Bak peptide probe; conditions: TR-FRET Binding Affinity, GST-Bcl-XL, F-Bak peptide probe
Procedure, shortened: (§1)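 Ki was derived with Wang's equation for competitive binding of two ligands. The read-out was time-resolved fluorescence after a 3 h room-temperature incubation, using a Tb-labelled antibody donor and the F-Bak peptide acceptor (excitation 340/35 nm). Test compounds entered as DMSO serial dilutions starting at 50 μM, which was the 2× concentration.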

[2] = system: FL5.12/Bcl-2 cells; assay: FL5.12/Bcl-2 cell viability assay under IL-3 withdrawal (CellTitre Glo); format: cell-based, murine; conditions: Mus musculus, IL-3 withdrawn 48 hrs, then 24 hrs with compound
Procedure, shortened: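 Murine IL-3-dependent FL5.12 cells stably overexpressing Bcl-2 were deprived of IL-3 (WEHI-3B conditioned medium omitted) for 48 hrs, then exposed to various compound concentrations for a further 24 hrs at 37° C, 5% CO2. Viability was read by CellTitre Glo luminescence.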

[3] = target: GST-Bcl-2 (Homo sapiens, UniProt P10415); assay: TR-FRET binding assay, GST-Bcl-2 with F-Bak peptide probe; conditions: for Ki: TR-FRET Binding Affinity, GST-Bcl-2, F-Bak peptide probe
Procedure, shortened: as §1

Chain of GST-Bcl-2 (P10415 whole entry): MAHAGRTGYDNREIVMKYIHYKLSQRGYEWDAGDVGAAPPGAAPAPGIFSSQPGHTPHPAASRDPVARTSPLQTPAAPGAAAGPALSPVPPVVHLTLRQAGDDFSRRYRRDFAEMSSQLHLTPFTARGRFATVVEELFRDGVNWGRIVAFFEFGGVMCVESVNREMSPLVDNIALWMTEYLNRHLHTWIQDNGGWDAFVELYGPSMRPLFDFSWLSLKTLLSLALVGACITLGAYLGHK
Chain of GST-Bcl-XL (Q07817 whole entry): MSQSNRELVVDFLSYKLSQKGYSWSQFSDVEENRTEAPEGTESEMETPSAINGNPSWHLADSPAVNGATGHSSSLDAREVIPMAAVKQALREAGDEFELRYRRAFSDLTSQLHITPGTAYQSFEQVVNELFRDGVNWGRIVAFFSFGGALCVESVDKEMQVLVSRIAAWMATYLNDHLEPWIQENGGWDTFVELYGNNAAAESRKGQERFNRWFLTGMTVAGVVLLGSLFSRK

SMILES	Ki [1] [nM]	EC50 [2] [nM]	Ki [3] [nM]	Binding selectivity ratio (Bcl-XL Ki/Bcl-2 Ki) ([3]; ratio of TR-FRET Ki values, Bcl-XL over Bcl-2)
CC1(C)CCC(CN2CCN(c3ccc(C(=O)NS(=O)(=O)c4cnc(NCC5CCOCC5)c(C#N)c4)c(Oc4ccc5[nH]ccc5c4)c3)CC2)=C(c2ccc(Cl)cc2)C1 [Example 352, 4-(4-{[2-(4-chlorophenyl)-4,4-dimethylcyclohex-1-en-1-yl]methyl}piperazin-1-yl)-N-({5-cyano-6-[(tetrahydro-2H-pyran-4-ylmethyl)amino]pyridin-3-yl}sulfonyl)-2-(1H-indol-5-yloxy)benzamide]	> 660	156	6.82	–
CN1CCN(Nc2ccc(S(=O)(=O)NC(=O)c3ccc(N4CCN(CC5=C(c6ccc(Cl)cc6)CCC(O)C5)CC4)cc3Oc3ccc4[nH]ccc4c3)cc2[N+](=O)[O-])CC1 (stereo not shown) [Example 226, 4-(4-{[2-(4-chlorophenyl)-5-hydroxycyclohex-1-en-1-yl]methyl}piperazin-1-yl)-2-(1H-indol-5-yloxy)-N-({4-[(4-methylpiperazin-1-yl)amino]-3-nitrophenyl}sulfonyl)benzamide]	9.93	23	0.017	–
CC1(C)CCC(CN2CCN(c3ccc(C(=O)NS(=O)(=O)c4cnc(OCC5(F)CCOCC5)c(C(F)(F)F)c4)c(Oc4cccc5[nH]ncc45)c3)CC2)=C(c2ccc(Cl)cc2)C1 [Example 410, 4-(4-{[2-(4-chlorophenyl)-4,4-dimethylcyclohex-1-en-1-yl]methyl}piperazin-1-yl)-N-{[6-[(4-fluorotetrahydro-2H-pyran-4-yl)methoxy]-5-(trifluoromethyl)pyridin-3-yl]sulfonyl}-2-(1H-indazol-4-yloxy)benzamide]	102	13.9	0.055	–
CN1CCN(Nc2ccc(S(=O)(=O)NC(=O)c3ccc(N4CCN(CC5=C(c6ccc(Cl)cc6)CC(C)(C)CC5)CC4)cc3Oc3cccc4[nH]ccc34)cc2S(=O)(=O)C(F)(F)F)CC1 [Example 215, 4-(4-{[2-(4-chlorophenyl)-4,4-dimethylcyclohex-1-en-1-yl]methyl}piperazin-1-yl)-2-(1H-indol-4-yloxy)-N-({4-[(4-methylpiperazin-1-yl)amino]-3-[(trifluoromethyl)sulfonyl]phenyl}sulfonyl)benzamide]	60.8	116	0.503	–
CC1(C)CCC(CN2CCN(c3ccc(C(=O)NS(=O)(=O)c4ccc(NCCN5CCNC(=O)C5)c([N+](=O)[O-])c4)c(Oc4ccc5[nH]ccc5c4)c3)CC2)=C(c2ccc(Cl)cc2)C1 [Example 273, 4-(4-{[2-(4-chlorophenyl)-4,4-dimethylcyclohex-1-en-1-yl]methyl}piperazin-1-yl)-2-(1H-indol-5-yloxy)-N-[(3-nitro-4-{[2-(3-oxopiperazin-1-yl)ethyl]amino}phenyl)sulfonyl]benzamide]	181	70	0.076	–
CC1(C)CCC(CN2CCN(c3ccc(C(=O)NS(=O)(=O)c4ccc(NCC56CC7CC(C5)C(O)C(C7)C6)c([N+](=O)[O-])c4)c(Oc4ccc5[nH]ccc5c4)c3)CC2)=C(c2ccc(Cl)cc2)C1 (stereo not drawn) [Example 322, 4-(4-{[2-(4-chlorophenyl)-4,4-dimethylcyclohex-1-en-1-yl]methyl}piperazin-1-yl)-N-{[4-({[Cis-4-hydroxy-1-adamantyl]methyl}amino)-3-nitrophenyl]sulfonyl}-2-(1H-indol-5-yloxy)benzamide]	> 660	44.5	0.184	>3591.4
COc1ccc(Nc2ccc(S(=O)(=O)NC(=O)c3ccc(N4CCN(CC5=C(c6ccc(Cl)cc6)CC(C)(C)CC5)CC4)cc3Oc3ccc4[nH]ccc4c3)cc2[N+](=O)[O-])cc1 [Example 372, 4-(4-{[2-(4-chlorophenyl)-4,4-dimethylcyclohex-1-en-1-yl]methyl}piperazin-1-yl)-2-(1H-indol-5-yloxy)-N-({4-[(4-methoxyphenyl)amino]-3-nitrophenyl}sulfonyl)benzamide]	> 660	> 500	> 1200	–
C#Cc1cc(S(=O)(=O)NC(=O)c2ccc(N3CCN(CC4=C(c5ccc(Cl)cc5)CC(C)(C)CC4)CC3)cc2Oc2cccc3[nH]ccc23)cnc1OCC1CCOCC1 [Example 391, 4-(4-{[2-(4-chlorophenyl)-4,4-dimethylcyclohex-1-en-1-yl]methyl}piperazin-1-yl)-N-{[5-ethynyl-6-(tetrahydro-2H-pyran-4-ylmethoxy)pyridin-3-yl]sulfonyl}-2-(1H-indol-4-yloxy)benzamide]	> 660	> 500	3.54	–
CC1(C)CCC(CN2CCN(c3ccc(C(=O)NS(=O)(=O)c4ccc(NN5CCOCC5)c([N+](=O)[O-])c4)c(Oc4cccc5[nH]ccc45)c3)CC2)=C(c2ccc(Cl)cc2)C1 [Example 262, 4-(4-{[2-(4-chlorophenyl)-4,4-dimethylcyclohex-1-en-1-yl]methyl}piperazin-1-yl)-2-(1H-indol-4-yloxy)-N-{[4-(morpholin-4-ylamino)-3-nitrophenyl]sulfonyl}benzamide]	> 660	176	3	–
CC1(C)CCC(CN2CCN(c3ccc(C(=O)NS(=O)(=O)c4ccc(NCCC#N)c([N+](=O)[O-])c4)c(Oc4cccc5[nH]ccc45)c3)CC2)=C(c2ccc(Cl)cc2)C1 [Example 320, 4-(4-{[2-(4-chlorophenyl)-4,4-dimethylcyclohex-1-en-1-yl]methyl}piperazin-1-yl)-N-({4-[(2-cyanoethyl)amino]-3-nitrophenyl}sulfonyl)-2-(1H-indol-4-yloxy)benzamide]	129	41.6	1.24	–
CC1(C)CCC(CN2CCN(c3ccc(C(=O)NS(=O)(=O)c4ccc(NCC5CCOCC5)c(C(F)(F)F)c4)c(Oc4ccc5[nH]ccc5c4)c3)CC2)=C(c2ccc(Cl)cc2)C1 [Example 277, 4-(4-{[2-(4-chlorophenyl)-4,4-dimethylcyclohex-1-en-1-yl]methyl}piperazin-1-yl)-2-(1H-indol-5-yloxy)-N-{[4-[(tetrahydro-2H-pyran-4-ylmethyl)amino]-3-(trifluoromethyl)phenyl]sulfonyl}benzamide]	> 660	> 500	29.7	–
CC1(C)CCC(CN2CCN(c3ccc(C(=O)NS(=O)(=O)c4ccc(NCCC5CCOCC5)c([N+](=O)[O-])c4)c(Oc4ccc5[nH]ccc5c4)c3)CC2)=C(c2ccc(Cl)cc2)C1 [Example 291, 4-(4-{[2-(4-chlorophenyl)-4,4-dimethylcyclohex-1-en-1-yl]methyl}piperazin-1-yl)-2-(1H-indol-5-yloxy)-N-({3-nitro-4-[(2-tetrahydro-2H-pyran-4-ylethyl)amino]phenyl}sulfonyl)benzamide]	> 660	58	0.56	–
CC1(C)CCC(CN2CCN(c3ccc(C(=O)NS(=O)(=O)c4ccc(NC[C@H]5CC[C@@H](O)CC5)c([N+](=O)[O-])c4)c(Oc4ccc5[nH]ccc5c4)c3)CC2)=C(c2ccc(Cl)cc2)C1 [Example 312, Cis-4-(4-{[2-(4-chlorophenyl)-4,4-dimethylcyclohex-1-en-1-yl]methyl}piperazin-1-yl)-N-[(4-{[(4-hydroxycyclohexyl)methyl]amino}-3-nitrophenyl)sulfonyl]-2-(1H-indol-5-yloxy)benzamide]	> 660	19.2	0.34	–
CC1(C)CCC(CN2CCN(c3ccc(C(=O)NS(=O)(=O)c4ccc(NCCCN5CCNC(=O)C5)c([N+](=O)[O-])c4)c(Oc4ccc5[nH]ccc5c4)c3)CC2)=C(c2ccc(Cl)cc2)C1 [Example 222, 4-(4-{[2-(4-chlorophenyl)-4,4-dimethylcyclohex-1-en-1-yl]methyl}piperazin-1-yl)-2-(1H-indol-5-yloxy)-N-[(3-nitro-4-{[3-(3-oxopiperazin-1-yl)propyl]amino}phenyl)sulfonyl]benzamide]	137	23.7	0.107	–
CC1(C)CCC(CN2CCN(c3ccc(C(=O)NS(=O)(=O)c4ccc(NCc5cncs5)c([N+](=O)[O-])c4)c(Oc4ccc5[nH]ccc5c4)c3)CC2)=C(c2ccc(Cl)cc2)C1 [Example 288, 4-(4-{[2-(4-chlorophenyl)-4,4-dimethylcyclohex-1-en-1-yl]methyl}piperazin-1-yl)-2-(1H-indol-5-yloxy)-N-({3-nitro-4-[(1,3-thiazol-5-ylmethyl)amino]phenyl}sulfonyl)benzamide]	> 660	64.3	0.177	–
CC1(C)CCC(CN2CCN(c3ccc(C(=O)NS(=O)(=O)c4ccc(NCCCN5CCS(=O)(=O)CC5)c([N+](=O)[O-])c4)c(Oc4ccc5[nH]ccc5c4)c3)CC2)=C(c2ccc(Cl)cc2)C1 [Example 266, 4-(4-{[2-(4-chlorophenyl)-4,4-dimethylcyclohex-1-en-1-yl]methyl}piperazin-1-yl)-N-[(4-{[3-(1,1-dioxidothiomorpholin-4-yl)propyl]amino}-3-nitrophenyl)sulfonyl]-2-(1H-indol-5-yloxy)benzamide]	> 660	11.5	0.183	–
CC1(C)CCC(CN2CCN(c3ccc(C(=O)NS(=O)(=O)c4ccc(NC5CCOCC5)c([N+](=O)[O-])c4)c(Oc4ccc5[nH]ccc5c4)c3)CC2)=C(c2ccc(Cl)cc2)C1 [Example 263, 4-(4-{[2-(4-chlorophenyl)-4,4-dimethylcyclohex-1-en-1-yl]methyl}piperazin-1-yl)-2-(1H-indol-5-yloxy)-N-{[3-nitro-4-(tetrahydro-2H-pyran-4-ylamino)phenyl]sulfonyl}benzamide]	> 660	28.4	0.316	–
